Measured values: patent publication US10471046B2, “Method for treating, preventing, or reducing the risk of skin infection” (Melinta Subsidiary Corp., priority 2014, dated 2019)

System: S. aureus
Assay: Minimum inhibitory concentrations (MICs) for S. aureus of exemplary compounds (Table 2)
Format: cell-based
Details: Staphylococcus aureus, minimum inhibitory concentrations for S. aureus; read-out: MICs
In short: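 Growth of S. aureus in media with or without compound, by broth microdilution in microtiter trays following NCCLS M7-A5 guidelines. Values are MICs in μg/mL.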

MIC, 0.25 µg/mL:
CC(=O)NC[C@H]1CN(c2ccc(-c3ccc(CNCc4csc(-c5cccs5)n4)cc3)c(F)c2)C(=O)O1 [Compound 4113, N-[3-(2-Fluoro-4′-{[(2-thiophen-2-yl-thiazol-4-ylmethyl)-amino]-methyl}-biphenyl-4-yl)-2-oxo-oxazolidin-5-(S)-ylmethyl]-acetamide]
CC(=O)NC[C@H]1CN(c2ccc(-c3ccc(C(=O)NCc4ccccn4)cc3)c(F)c2)C(=O)O1 [Compound 4110, 4′-[5-(S)-(Acetylamino-methyl)-2-oxo-oxazolidin-3-yl]-2′-fluoro-biphenyl-4-carboxylic acid (pyridin-2-ylmethyl)-amide]
CC(=O)NC[C@H]1CN(c2ccc(-c3ccc(CNCc4c(-c5ccccc5)noc4C)cc3)c(F)c2)C(=O)O1 [Compound 4104, N-[3-(2-Fluoro-4′-{[(5-methyl-3-phenyl-isoxazol-4-ylmethyl)-amino]-methyl}-biphenyl-4-yl)-2-oxo-oxazolidin-5-(S)-ylmethyl]-acetamide]
CC(=O)NC[C@H]1CN(c2ccc(-c3ccc(Cn4nccn4)cc3)c(F)c2)C(=O)O1 [Compound 1023, N-[3-(2-Fluoro-4′-[1,2,3]triazol-2-ylmethyl-biphenyl-4-yl)-2-oxo-oxazolidin-5-(S)-ylmethyl]-acetamide]

MIC, 8 µg/mL:
CC(=O)NC[C@H]1CN(c2ccc(-c3ccc(CNCc4cccnc4N4CCOCC4)cc3)c(F)c2)C(=O)O1 [Compound 4117, N-[3-(2-Fluoro-4′-{[(2-morpholin-4-yl-pyridin-3-ylmethyl)-amino]-methyl}-biphenyl-4-yl)-2-oxo-oxazolidin-5-(S)-ylmethyl]-acetamide]
CC(=O)NC[C@H]1CN(c2ccc(-c3ccc(CNC(=O)C4CCN4C(=O)OC(C)(C)C)cc3)c(F)c2)C(=O)O1 (stereo partly drawn) [Compound 4295, 2-({4′-[5-(S)-(Acetylamino-methyl)-2-oxo-oxazolidin-3-yl]-2′-fluoro-biphenyl-4-ylmethyl}-carbamoyl)-azetidine-1-carboxylic acid tert-butyl ester]

MIC, 4 µg/mL:
CC(=O)NC[C@H]1CN(c2ccc(-c3ccc(CNCc4sccc4C)cc3)c(F)c2)C(=O)O1 [Compound 4099, N-[3-(2-Fluoro-4′-{[(3-methyl-thiophen-2-ylmethyl)-amino]-methyl}-biphenyl-4-yl)-2-oxo-oxazolidin-5-(S)-ylmethyl]-acetamide]
CC(=O)NC[C@H]1CN(c2ccc(-c3ccc([C@H](CO)N4CCCC(F)(F)C4)cc3)c(F)c2)C(=O)O1 [Compound 1074, N-(3-{4′-[1-(R)-(3,3-Difluoro-piperidin-1-yl)-2-hydroxy-ethyl]-2-fluoro-biphenyl-4-yl}-2-oxo-oxazolidin-5-(S)-ylmethyl)-acetamide]
CC(=O)NC[C@H]1CN(c2ccc(-c3ccc(CNC(=O)c4cccc(S(C)(=O)=O)c4)cc3)c(F)c2)C(=O)O1 [Compound 4012, N-{4′-[5-(S)-(Acetylamino-methyl)-2-oxo-oxazolidin-3-yl]-2′-fluoro-biphenyl-4-ylmethyl}-3-methanesulfonyl-benzamide]
CC(=O)NC[C@H]1CN(c2ccc(-c3ccc(CNCCc4c[nH]cn4)cc3)c(F)c2)C(=O)O1 [Compound 4227, N-[3-(2-Fluoro-4′-{[2-(1H-imidazol-4-yl)-ethylamino]-methyl}-biphenyl-4-yl)-2-oxo-oxazolidin-5-(S)-ylmethyl]-acetamide]
O=C1O[C@@H](CO)CN1c1ccc(-c2ccc(CNCc3ccncc3)cc2)c(F)c1 [Compound 4213, 3-(2-Fluoro-4′-{[(pyridin-4-ylmethyl)-amino]-methyl}-biphenyl-4-yl)-5-(R)-hydroxymethyl-oxazolidin-2-one]
CC(=O)NC[C@H]1CN(c2ccc(-c3ccc(CNCc4nc5ccccc5[nH]4)cc3)c(F)c2)C(=O)O1 [Compound 4092, N-[3-(4′-{[(1H-Benzoimidazol-2-ylmethyl)-amino]-methyl}-2-fluoro-biphenyl-4-yl)-2-oxo-oxazolidin-5-(S)-ylmethyl]-acetamide]
CC(=O)NC[C@H]1CN(c2ccc(-c3ccc(CNc4nc[nH]c4C(N)=O)cc3)c(F)c2)C(=O)O1 [Compound 2055, 5-({4′-[5-(S)-(Acetylamino-methyl)-2-oxo-oxazolidin-3-yl]-2′-fluoro-biphenyl-4-ylmethyl}-amino)-3H-imidazole-4-carboxylic acid amide]

MIC, 1 µg/mL:
CC(=O)NC[C@H]1CN(c2ccc(-c3ccc(CCNCc4ccncc4)cc3)c(F)c2)C(=O)O1 [Compound 4149, N-[3-(2-Fluoro-4′-{2-[(pyridin-4-ylmethyl)-amino]-ethyl}-biphenyl-4-yl)-2-oxo-oxazolidin-5-(S)-ylmethyl]-acetamide]
CC(=O)NC[C@H]1CN(c2ccc(-c3ccc(CSc4ncnn4C)cc3)c(F)c2)C(=O)O1 [Compound 2033, N-{3-[2-Fluoro-4′-(2-methyl-2H-[1,2,4]triazol-3-ylsulfanylmethyl)-biphenyl-4-yl]-2-oxo-oxazolidin-5-(S)-ylmethyl}-acetamide]
CC(=O)NC[C@H]1CN(c2ccc(-c3ccc(C(=O)NCc4cocn4)cc3)c(F)c2)C(=O)O1 [Compound 4205, 4′-[5-(S)-(Acetylamino-methyl)-2-oxo-oxazolidin-3-yl]-2′-fluoro-biphenyl-4-carboxylic acid (oxazol-4-ylmethyl)-amide]
CC(=O)NC[C@H]1CN(c2ccc(-c3ccc(Cn4cnc5c(Cl)ncnc54)cc3)c(F)c2)C(=O)O1 [Compound 1100, N-{3-[4′-(6-Chloro-purin-9-ylmethyl)-2-fluoro-biphenyl-4-yl]-2-oxo-oxazolidin-5-(S)-ylmethyl}-acetamide]
CC(=O)NC[C@H]1CN(c2ccc(-c3ccc(CNCc4ccc(Br)nc4)cc3)c(F)c2)C(=O)O1 [Compound 4181, N-[3-(4′-{[(6-Bromo-pyridin-3-ylmethyl)-amino]-methyl}-2-fluoro-biphenyl-4-yl)-2-oxo-oxazolidin-5-(S)-ylmethyl]-acetamide]
CC(=O)NC[C@H]1CN(c2ccc(-c3ccc(C(=O)NCc4nccs4)cc3)c(F)c2)C(=O)O1 [Compound 4143, 4′-[5-(S)-(Acetylamino-methyl)-2-oxo-oxazolidin-3-yl]-2′-fluoro-biphenyl-4-carboxylic acid (thiazol-2-ylmethyl)-amide]
CC(=O)NC[C@H]1CN(c2ccc(-c3ccc(Cn4cc(C(=O)O)cn4)cc3)c(F)c2)C(=O)O1 [Compound 1051, 1-{4′-[5-(S)-(Acetylamino-methyl)-2-oxo-oxazolidin-3-yl]-2′-fluoro-biphenyl-4-ylmethyl}-1H-pyrazole-4-carboxylic acid]

MIC, 2 µg/mL:
CC(=O)NC[C@H]1CN(c2ccc(-c3ccc(S(=O)(=O)NCc4ccncc4)cc3)c(F)c2)C(=O)O1 [Compound 3005, N-(3-{2-Fluoro-4′-[(pyridin-4-ylmethyl)-sulfamoyl]-biphenyl-4-yl}-2-oxo-oxazolidin-5-(S)-ylmethyl)-acetamide]
CC(=O)NC[C@H]1CN(c2ccc(-c3ccc(CNNC4=NCCN4)cc3)c(F)c2)C(=O)O1 [Compound 2049, N-(3-{4′-[N′-(4,5-Dihydro-1H-imidazol-2-yl)-hydrazinomethyl]-2-fluoro-biphenyl-4-yl}-2-oxo-oxazolidin-5-(S)-ylmethyl)-acetamide]
CC(=O)NC[C@H]1CN(c2ccc(-c3ccc([C@H](O)CN(Cc4ccccc4)C(C)=O)cc3)c(F)c2)C(=O)O1 [Compound 4250, N-(2-{4′-[5-(S)-(Acetylamino-methyl)-2-oxo-oxazolidin-3-yl]-2′-fluoro-biphenyl-4-yl}-2-(S)-hydroxy-ethyl)-N-benzyl-acetamide]
CC(=O)NC[C@H]1CN(c2ccc(-c3ccc(C(=O)NCCc4cnc[nH]4)nc3)c(F)c2)C(=O)O1 [Compound 4223, 5-{4-[5-(S)-(Acetylamino-methyl)-2-oxo-oxazolidin-3-yl]-2-fluoro-phenyl}-pyridine-2-carboxylic acid [2-(3H-imidazol-4-yl)-ethyl]-amide]
CC(=O)NC[C@H]1CN(c2ccc(-c3ccc(CNCC(CF)n4ccnn4)cc3)c(F)c2)C(=O)O1 (stereo partly drawn) [Compound 4274, N-(3-{2-Fluoro-4′-[(3-fluoro-2-[1,2,3]triazol-1-yl-propylamino)-methyl]-biphenyl-4-yl}-2-oxo-oxazolidin-5-(S)-ylmethyl)-acetamide]
CC(=O)NC[C@H]1CN(c2ccc(-c3ccc(CNCc4ccco4)c(F)c3F)c(F)c2)C(=O)O1 [Compound 4088, N-[2-Oxo-3-(2,2′,3′-trifluoro-4′-{[(furan-2-ylmethyl)-amino]-methyl}-biphenyl-4-yl)-oxazolidin-5-(S)-ylmethyl]-acetamide]
CC(=O)NC[C@H]1CN(c2ccc(-c3ccc(CNCc4cc5ccccc5o4)cc3)c(F)c2)C(=O)O1 [Compound 4020]

MIC, 32 µg/mL:
CC(=O)NC[C@H]1CN(c2ccc(-c3ccc(CNC(=O)c4cnc5ccccc5c4)cc3)c(F)c2)C(=O)O1 [Compound 4009, Quinoline-3-carboxylic acid {4′-[5-(S)-(acetylamino-methyl)-2-oxo-oxazolidin-3-yl]-2′-fluoro-biphenyl-4-ylmethyl}-amide]

MIC, 0.5 µg/mL:
O=C(NC[C@H]1CN(c2ccc(-c3ccc(Cn4cnnn4)cc3)c(F)c2)C(=O)O1)C(Cl)Cl [Compound 1034, 2,2-Dichloro-N-[3-(2-fluoro-4′-tetrazol-1-ylmethyl-biphenyl-4-yl)-2-oxo-oxazolidin-5-(S)-ylmethyl]-acetamide]
CC(=O)NC[C@H]1CN(c2ccc(-c3ccc(Cn4nnc(C)n4)cc3)c(F)c2)C(=O)O1 [Compound 1059, N-{3-[2-Fluoro-4′-(5-methyl-tetrazol-2-ylmethyl)-biphenyl-4-yl]-2-oxo-oxazolidin-5-(S)-ylmethyl}-acetamide]
CC(=O)NC[C@H]1CN(c2ccc(-c3ccc(C(=O)NCCc4ccccn4)cc3)c(F)c2)C(=O)O1 [Compound 4115, 4′-[5-(S)-(Acetylamino-methyl)-2-oxo-oxazolidin-3-yl]-2′-fluoro-biphenyl-4-carboxylic acid (2-pyridin-2-yl-ethyl)-amide]
